The values that follow come from the Kinase Knowledgebase extract (Sharma et al. 2016).

In this experiment the target is CDK2 (human) (UniProt P24941). Nature of the experiment: Enzyme Assay.

In general, IC50 refers to the concentration that gives 50% inhibition. A low value points to higher potency. Consider `CC(C)c1[nH]ncc1-c1ccnc(NC(C)c2ccccc2)c1` (stereo not given), for which the concentration for half-maximal inhibition (IC50) was less than 5 µM.

For the compound `CC(C)c1n[nH]c(Br)c1-c1ccnc(NC2CCN(C)CC2)n1`, the IC50 was less than 5 µM.

In the case of `CCC(C)c1[nH]ncc1-c1ccnc(NC2CCc3ccccc32)c1` (stereo not given), the IC50 was less than 5 µM.

`Cc1n[nH]cc1-c1ccnc(NCC2CCCCC2)n1` registered a concentration for half-maximal inhibition (IC50) of less than 10 µM.

Compound `CC(C)c1n[nH]cc1-c1ccnc(NCc2ccccc2C(F)(F)F)n1` registered a half-inhibitory concentration (IC50) of less than 5 µM.

In turn, `CN1CCC(Nc2cc(-c3cn[nH]c3C(C)(C)C)ccn2)CC1` displayed an IC50 of less than 15 µM.

Compound `CC(C)c1[nH]ncc1-c1ccnc(NCc2ccncc2)c1` had an IC50 of less than 5 µM.

For the compound `Cc1cccc(CNc2cc(-c3cn[nH]c3C3CCCC3)ccn2)c1`, the IC50 was less than 5 µM.

For `Cc1n[nH]cc1-c1ccnc(NCCc2cccnc2)n1`, the IC50 was less than 10 µM.

As to `Cc1nnc(C(C)Nc2nccc(-c3c[nH]nc3C(C)C)n2)[nH]1` (stereo not given), the 50% inhibitory concentration (IC50) is less than 15 µM.

As to `Cc1ccccc1CNc1cc(-c2cn[nH]c2C2CCCCCC2)ccn1`, the IC50 was less than 10 µM.

The compound `Cc1n[nH]cc1-c1ccnc(NC2CCCC2)n1` displayed an IC50 of less than 5 µM.

For the compound `Cc1n[nH]cc1-c1ccnc(NC2CCCNC2)n1` (stereo not given), the 50% inhibitory concentration (IC50) is less than 5 µM.

Consider `CC(C)c1n[nH]cc1-c1ccnc(NC(C)c2ccccn2)n1` (stereo not given), for which the IC50 was less than 10 µM.

In the case of `CCCNc1cc(-c2cn[nH]c2C(C)C)ccn1`, the concentration for half-maximal inhibition (IC50) was less than 5 µM.

Regarding `CC(C)c1n[nH]cc1-c1ccnc(NC2CCCCC2C)n1` (stereo not given), the IC50 was less than 1 µM.

Regarding `Cc1ccccc1CNc1nccc(-c2c[nH]nc2C(C)C)n1`, the 50% inhibitory concentration (IC50) is less than 1 µM.

With `Cc1cccc(CNc2cc(-c3cn[nH]c3C(C)C)ccn2)c1`, the IC50 is less than 5 µM.

Take `CC(C)c1n[nH]cc1-c1ccnc(NC2CCN(C(=O)OC(C)(C)C)CC2)n1`: the 50% inhibitory concentration (IC50) was less than 1 µM.

Compound `Cc1ccccc1CNc1nccc(-c2c[nH]nc2C)n1` had an IC50 of less than 10 µM.

`CC(C)c1n[nH]cc1-c1ccnc(N[C@H]2CCCc3ccccc32)n1` registered an IC50 of less than 0.5 µM.

In turn, `CC(C)c1[nH]ncc1-c1ccnc(NC(CO)C(C)C)c1` (stereo not given) showed an IC50 of less than 15 µM.

`CC(C)c1[nH]ncc1-c1ccnc(NC2CCN(C)CC2)c1` showed an IC50 of less than 15 µM.

Take `CC(C)CNc1cc(-c2cn[nH]c2C(C)C)ccn1`: the IC50 is less than 0.5 µM.

Consider `CC(C)CNc1cc(-c2cn[nH]c2C2CCCC2)ccn1`, for which the half-inhibitory concentration (IC50) is less than 1 µM.

Take `CC(C)c1[nH]ncc1-c1ccnc(NC2CCCCC2)c1`: the IC50 is less than 0.5 µM.

Consider `CC(C)c1[nH]ncc1-c1ccnc(NCCc2ccccn2)c1`, for which the IC50 was less than 5 µM.

Take `CC(C)c1[nH]ncc1-c1ccnc(NCc2ccccc2)c1`: the IC50 was less than 5 µM.

The compound `Cc1n[nH]cc1-c1ccnc(NCc2ccncc2)n1` showed an IC50 of less than 15 µM.

With `Cc1n[nH]cc1-c1ccnc(NCCCO)n1`, the concentration for half-maximal inhibition (IC50) is less than 15 µM.

`CC(CCCC(C)(C)O)Nc1nccc(-c2c[nH]nc2C(C)C)n1` (stereo not given) showed an IC50 of less than 5 µM.

In turn, `Cc1ccc(CNc2cc(-c3cn[nH]c3C(C)C)ccn2)cc1` had an IC50 of less than 5 µM.

Regarding `CC(C)c1n[nH]cc1-c1ccnc(NC2CN3CCC2CC3)n1` (stereo not given), the IC50 is less than 5 µM.

The compound `CCCCNc1nccc(-c2c[nH]nc2C)n1` yielded an IC50 of less than 10 µM.

Take `CC(C)c1n[nH]cc1-c1ccnc(NCc2c(F)cccc2F)n1`: the IC50 was less than 5 µM.
